These results are taken from patent publication US5739131A, “Benzene derivatives and pharmaceutical composition” (Kureha Chemical Industry Co., Ltd., priority 1994, dated 1998).

For series [1], the system named is mice. Put plainly: Acute toxicity, single oral dose. The format is in vivo. The conditions noted are these: mouse, in vivo, po, 500 mg/kg. How it is done:
Five-week-old ICR female mice (5 mice per group) were bred for acclimation for a week. Then, the compounds of the present invention were dissolved or dispersed in an aqueous solution of 0.5% methylcellulose, and orally administered to the mice in a single dosage (500 mg/kg).

For series [2], the target named is T1, angiotensin II receptor subtype 1 (AT1) (Oryctolagus cuniculus, UniProt P34976).
T1 construct: receptor: from adrenal glands in rabbits; from tissue; host or cells: rabbit adrenal glands
T1 sequence (P34976 1-359): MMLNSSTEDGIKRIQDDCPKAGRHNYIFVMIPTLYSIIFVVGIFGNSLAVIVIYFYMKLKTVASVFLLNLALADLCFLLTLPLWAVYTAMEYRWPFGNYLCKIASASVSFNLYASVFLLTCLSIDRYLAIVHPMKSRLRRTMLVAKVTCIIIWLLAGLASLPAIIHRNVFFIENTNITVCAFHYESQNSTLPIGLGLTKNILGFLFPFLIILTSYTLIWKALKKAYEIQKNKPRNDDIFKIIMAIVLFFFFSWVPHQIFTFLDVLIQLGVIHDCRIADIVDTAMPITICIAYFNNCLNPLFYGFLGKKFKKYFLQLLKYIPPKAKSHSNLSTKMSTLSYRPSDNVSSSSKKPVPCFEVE
Put plainly: Binding assay, angiotensin II receptor subtype 1 (AT1). The following applies: 100 μM, AT1, rabbit adrenal glands. More on the design: species or system rabbit (adrenal glands).

Series [3] addresses T2, angiotensin II receptor subtype 2 (AT2) (Bos taurus, UniProt G5E6F7).
T2 construct: receptor: from cerebellar cortex in bovine; from tissue; host or cells: bovine cerebellar cortex
T2 sequence (G5E6F7 1-362): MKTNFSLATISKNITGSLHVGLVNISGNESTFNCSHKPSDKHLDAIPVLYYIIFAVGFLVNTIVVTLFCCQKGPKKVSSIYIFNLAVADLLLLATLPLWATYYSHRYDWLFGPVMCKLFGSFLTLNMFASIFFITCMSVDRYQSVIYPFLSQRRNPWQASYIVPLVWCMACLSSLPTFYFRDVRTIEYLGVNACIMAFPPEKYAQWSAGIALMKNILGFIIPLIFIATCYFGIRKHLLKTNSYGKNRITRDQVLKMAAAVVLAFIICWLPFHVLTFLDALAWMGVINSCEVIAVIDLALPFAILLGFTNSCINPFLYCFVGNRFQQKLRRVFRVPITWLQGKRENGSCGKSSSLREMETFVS
Put plainly: Binding assay, angiotensin II receptor subtype 2 (AT2). The conditions noted are these: 100 μM, AT2, bovine cerebellar cortex, 37° C. 1 hour; read-out: Binding inhibition % in 100 μm, AT2. More on the design: species or system bovine (cerebellar cortex).

Series [4] deals with kidney disease model rats. The series is described as follows: Action to depress blood pressure (tail cuff method). The series is classed as in vivo, Sprague-Dawley female rats. The following applies: 20 mg/kg per os; for Blood pressure: systolic, average, two days from administration, control (water) 203.
For series [5], the system named is kidney disease model rats. The series is described as follows: Renal function indicatory value (action to kidney diseases). The following applies: 20 mg/kg/day per os, two weeks; for Creatinine clearance: 24 hours urine, control 0.20; for Creatinine / Urea nitrogen: serum; for Creatinine: control 2.0; for Urea nitrogen: control 100. The series is classed as in vivo, Sprague-Dawley female rats.

For series [6], the system named is kidney disease model rats. Put plainly: Action to survival time of kidney diseased animals. The format is in vivo, Sprague-Dawley female rats. The following applies: 20 mg/kg/day per os, observation eight weeks (upper limit); control 5.0.
For series [7], the system named is hyperlipemia model rats. The conditions noted are these: cited from earlier work.
For series [8], the system named is renal dysfunction. The conditions noted are these: in vivo; cited from earlier work.

As to `CCCCC(=O)N(Cc1ccc(-c2nn[nH]n2)cc1)c1cc(C(=O)N2CCOCC2)ccc1N(C)C` [Compound No. 604, 4-dimethylamino-3-N-[[4-(1H-tetrazol-5-yl)phenylmethyl]valeramido]benzoic acid morpholide], the “Number of deaths/number of survivals” value in series [1] is 0/5. In series [2], this molecule yielded an inhibition at 100 µM of 15%. Besides, the inhibition at 100 µM in series [3] was 0%. The molecule further showed a Blood pressure in series [4] of 200 mmHg. In series [5], this molecule came in with a Creatinine clearance of 0.28 mL/min, a Creatinine of 1.8 mg/dL and a Urea nitrogen of 75 mg/dL. Besides, the Average survival time in series [6] came to 7.0 weeks.

`CCCCc1nc(Cl)c(CO)n1Cc1ccc(-c2ccccc2-c2nnn[nH]2)cc1` [DuP753, 2-butyl-4-chloro-5-(hydroxymethyl)-1-[[2'-(1H-tetrazol-5-yl)biphenyl-4-yl]methyl]imidazole, reference compound]: the “action to depress the blood pressure” value in series [4] (in comparison with control group) is “clearly showed the action to depress the blood pressure”. Further, the Blood pressure in series [4] stood at 135 mmHg. In series [5], the Creatinine clearance worked out at 0.32 mL/min, the Creatinine was 1.6 mg/dL and the Urea nitrogen turned out to be 80 mg/dL. In addition, in series [6], the Average survival time came out at 6.9 weeks. In addition, the Blood pressure entry in series [7] (large dose) is listed as “an evident reduction of blood pressure was observed”. In series [7] (lower dose), the “effect to blood pressure” value is on record as “without practical effect to blood pressure” and the kidney disease improvement result is listed as “the kidney disease was improved in a lower dose”.

As for `C[C@H](CS)C(=O)N1CCC[C@H]1C(=O)O` [captoril], in series [8], the Blood pressure result is “blood pressure is lowered” and the “progress of renal dysfunction” value is recorded as “the progress of renal dysfunction is improved”.

As to `CCOC(=O)[C@H](CCc1ccccc1)N[C@@H](C)C(=O)N1CCC[C@H]1C(=O)O` [enalapril], in series [8], the Blood pressure entry is on record as “blood pressure is lowered” and the “progress of renal dysfunction” value was “the progress of renal dysfunction is improved”.

The inhibition is how much of the control response was suppressed.
